Molecular target: human α7 nAChR (Homo sapiens (Human), UniProt P36544)
Test: Automated patch-clamp electrophysiology functional assay (Assay A)
Type: cell-based
Conditions: IonFlux HT whole-cell population patch, HEK cells expressing human α7/RIC-3, 40 μM acetylcholine
Method: The α7 nAChR positive allosteric modulator (PAM) activity of the present compounds may be tested using assays known in the art. The α7 nAChR PAMs described herein have activities in an automated patch-clamp electrophysiology functional assay as described in the examples. The assay was performed using the IonFlux HT in a whole-cell, population patch configuration. See Golden et al. Assay Drug Dev. Technol. (2011) 9:608-619. The compounds were assessed for their ability to modulate the function of the human α7 nAChR stably expressed in a HEK cell line both in the presence, and in the absence of the natural α7 agonist acetylcholine. By performing a series of such measurements at different concentrations, the effective concentration of the α7 nAChR PAMs (EC50) was determined. See Spencer et al. Assay Drug Dev. Technol. (2012) 10:313-324.
Direct activation of α7 (agonism), and potentiation of acetylcholine-evoked α7 currents was determined as follows:
Automated Patch-Clamp Electrophysiology Functional Assay (Assay A)
Automated patch-clamp electrophysiology was performed using the IonFluxHT (Fluxion Biosciences Inc., San Francisco, CA) in the whole-cell, population patch configuration. Test compounds were assessed for their ability to modulate the function of the α7 nicotinic acetylcholine receptor both in the presence, and in the absence of the natural α7 agonist acetylcholine. A HEK cell line stably expressing both human RIC-3 and human α7 (PrecisION hnAChR α7/RIC-3, Eurofins Pharma, St. Charles, MO) was cultured in 175 cm^2 triple-layer tissue culture flasks to no more than 90% confluency in DMEM/F-12 growth media supplemented with 10% heat-inactivated fetal bovine serum, 1% non-essential amino acids, 0.625 μg/mL Puromycin, and 400 μg/mL Geneticin. Immediately prior to assay, cells were detached by first aspirating growth media, rinsing with Dulbecco's phosphate buffered saline, and then adding 10 mL of Accutase (Innovative Cell Technologies, San Diego, CA) to the flask and then incubating at 37° C. for 5 minutes. Detached cells were then recovered by the addition of 40 mL of CHO-serum-free media supplemented with 25 mM HEPES, and rocked gently in a 50 mL conical tube for 20 minutes prior to patch-clamp assay. After recovery, cells were pelleted by centrifugation at 1,000 RPM for 1 minute in a compact bench top centrifuge; recovery media was aspirated and cells were resuspended in external recording solution (150 mM NaCl, 5 mM KCl, 2 mM CaCl2), 1 mM MgCl2, 10 mM HEPES, 12 mM dextrose) to a density of 5.0×10^6 cells/mL. The cell suspension was added to the cell inlet wells on an IonFlux HT population patch plate which had previously been rinsed and primed with deionized H2O. Test compounds were serially diluted in DMSO and then resuspended to the final test concentration in external recording solution, with, or without 40 μM acetylcholine added to the external recording solution; test compounds were then transferred to the IonFlux HT population patch plate. Internal recording solution (110 mM TrisPO4, 28 mM TrisBase, 0.1 mM CaCl2), 2 mM MgCl2, 11 mM EGTA, 4 mM MgATP) was added to the internal recording solution inlet wells on the IonFlux HT patch plate previously loaded with cells and test compounds, and the plate loaded into the IonFlux HT instrument. A protocol was executed on the IonFlux HT to trap the cells, break into the cells, and establish the whole-cell recording configuration; cells were voltage-clamped at a holding potential of −60 mV for the duration of the experiment, all experiments were conducted at room temperature, and the IonFlux HT injection pressure was 8 psi for solution applications. Upon establishing the whole-cell configuration, external recording solution was perfused into the recording chambers for 120 seconds and then 40 μM acetylcholine was applied for 1 second and immediately washed off with external recording solution for 60 seconds. […]

human α7 nAChR, sequence (P36544 23-502): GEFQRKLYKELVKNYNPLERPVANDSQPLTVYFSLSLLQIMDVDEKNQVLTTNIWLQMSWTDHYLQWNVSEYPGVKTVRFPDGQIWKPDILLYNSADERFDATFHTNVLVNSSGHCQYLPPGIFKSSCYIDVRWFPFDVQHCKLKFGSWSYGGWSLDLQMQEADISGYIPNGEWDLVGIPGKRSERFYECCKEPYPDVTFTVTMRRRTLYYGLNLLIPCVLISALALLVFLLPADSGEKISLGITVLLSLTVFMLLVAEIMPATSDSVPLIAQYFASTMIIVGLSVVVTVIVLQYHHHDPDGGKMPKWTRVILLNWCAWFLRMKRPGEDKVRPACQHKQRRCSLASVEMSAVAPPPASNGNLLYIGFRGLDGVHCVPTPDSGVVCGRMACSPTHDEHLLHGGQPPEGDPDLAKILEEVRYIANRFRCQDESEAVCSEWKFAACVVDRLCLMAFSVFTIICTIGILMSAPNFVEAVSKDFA

| Compound | EC50 (electrophysiology EC50 values) | EC50 (potency class) |
| --- | --- | --- |
| O=C(N[C@@H](C(F)F)C1CCCCC1)C1C2COc3ccccc3C21 (stereo partly drawn) [Example A20, exo-N-[(1R)-1-cyclohexyl-2,2-difluoroethyl]-1,1a,2,7b-tetrahydrocyclopropa[c][1]benzopyran-1-carboxamide] | 570 nM | 500 to 5000 nM |
| O=C(N[C@@H](C(F)F)C1CCCCC1)C1C2COc3ccc(F)cc3C21 (stereo partly drawn) [Example A7, exo-N-[(1R)-1-cyclohexyl-2,2-difluoroethyl]-6-fluoro-1,1a2,7b-tetrahydrocyclopropa[c][1]benzopyran-1-carboxamide] | 800 nM | 500 to 5000 nM |
| O=C(NC(c1ccccc1)c1ccncc1)[C@@H]1[C@H]2Oc3ccc(F)cc3[C@H]21 (stereo partly drawn) [Example C39, 4-{[(exo-5-fluoro-1a,6b-dihydro-1H-cyclopropa[b][1]benzofuran-1-carbonyl)amino](phenyl)methyl}pyridine] | – | 500 to 5000 nM |
| CCOc1ccc([C@@H](NC(=O)C2C3COc4ccc(F)cc4C32)C(F)(F)F)cn1 (stereo partly drawn) [Example A13, exo-N-[(1R)-1-(6-ethoxypyridin-3-yl)-2,2,2-trifluoroethyl]-6-fluoro-1,1a,2,7b-tetrahydrocyclopropa[c][1]benzopyran-1-carboxamide] | 1100 nM | 500 to 5000 nM |
| COc1cc(C2(NC(=O)C3C4COc5ccccc5C43)CC2)ccn1 (stereo not drawn) [Example A10, exo-N-[1-(2-methoxypyridin-4-yl)cyclopropyl]-1,1a,2,7b-tetrahydrocyclopropa[c][1]benzopyran-1-carboxamide] | – | 500 to 5000 nM |
| CCOc1ccc([C@H](COC)NC(=O)C2C3Oc4ccccc4C32)cc1 (stereo partly drawn) [Example B1, exo-N-[(1R)-1-(4-ethoxyphenyl)-2-methoxyethyl]-1a,6b-dihydro-1H-cyclopropa[b][1]benzofuran-1-carboxamide] | 1200 nM | 500 to 5000 nM |
| COc1cccc(OC)c1CNC(=O)C1C2COc3ccccc3C21 (stereo not drawn) [Example A17, exo-N-[(2,6-dimethoxyphenyl)methyl]-1,1a,2,7b-tetrahydrocyclopropa[c][1]benzopyran-1-carboxamide] | 1100 nM | 500 to 5000 nM |
| CCOc1ccc([C@H](COC)NC(=O)C2C3Oc4ccc(-c5cn(Cc6ccccc6)nn5)cc4C32)cc1 (single isomer, unassigned) [Example 6] | 1100 nM | 500 to 5000 nM |
| O=C(NCCc1ccccc1)C1C2Oc3ccc(F)cc3C21 (stereo not drawn) [Example C11, exo-5-fluoro-N-(2-phenylethyl)-1a,6b-dihydro-1H-cyclopropa[b][1]benzofuran-1-carboxamide] | 2200 nM | 500 to 5000 nM |
| O=C(NCc1ccc(Oc2ccccn2)cc1)C1C2Oc3ccc(F)cc3C21 (stereo not drawn) [Example C34, exo-5-fluoro-N-({4-[(pyridin-2-yl)oxy]phenyl}methyl)-1a,6b-dihydro-1H-cyclopropa[b][1]benzofuran-1-carboxamide] | 810 nM | 500 to 5000 nM |
| CCOc1ccc([C@H](COC)NC(=O)C2C3Oc4ccc(F)cc4C32)cc1 (stereo partly drawn) [Example B5, exo-N-[(1R)-1-(4-ethoxyphenyl)-2-methoxyethyl]-5-fluoro-1a,6b-dihydro-1H-cyclopropa[b][1]benzofuran-1-carboxamide] | 760 nM | 500 to 5000 nM |

Next, values leading:

| EC50 (electrophysiology EC50 values) | EC50 (potency class) | Compound |
| --- | --- | --- |
| 1200 nM | 500 to 5000 nM | CC(NC(=O)C1C2Oc3ccc(F)cc3C21)c1cccs1 (stereo not drawn) [Example C12, exo-5-fluoro-N-[1-(thiophen-2-yl)ethyl]-1a,6b-dihydro-1H-cyclopropa[b][1]benzofuran-1-carboxamide] |
| 850 nM | 500 to 5000 nM | O=C(NCc1ccc(-n2cccc2)cc1)C1C2Oc3ccc(F)cc3C21 (stereo not drawn) [Example C25, exo-5-fluoro-N-{[4-(1H-pyrrol-1-yl)phenyl]methyl}-1a,6b-dihydro-1H-cyclopropa[b][1]benzofuran-1-carboxamide] |
| – | 5000 to 50000 nM | COc1cc(CNC(=O)C2C3Oc4ccc(F)cc4C32)on1 (stereo not drawn) [Example C45, exo-5-fluoro-N-[(3-methoxy-1,2-oxazol-5-yl)methyl]-1a,6b-dihydro-1H-cyclopropa[b][1]benzofuran-1-carboxamide] |
| 1500 nM | 500 to 5000 nM | O=C(NCc1nc(-c2ccccc2)no1)C1C2Oc3ccc(F)cc3C21 (stereo not drawn) [Example C53, exo-5-fluoro-N-[(3-phenyl-1,2,4-oxadiazol-5-yl)methyl]-1a,6b-dihydro-1H-cyclopropa[b][1]benzofuran-1-carboxamide] |
| 620 nM | 500 to 5000 nM | O=C(NCc1ccccc1OCC1CC1)C1C2Oc3ccc(F)cc3C21 (stereo not drawn) [Example C40, exo-N-{[2-(cyclopropylmethoxy)phenyl]methyl}-5-fluoro-1a,6b-dihydro-1H-cyclopropa[b][1]benzofuran-1-carboxamide] |
| 3400 nM | 500 to 5000 nM | O=C(NCc1cc(F)ccc1F)C1C2Oc3ccc(F)cc3C21 (stereo not drawn) [Example C22, exo-N-[(2,5-difluorophenyl)methyl]-5-fluoro-1a,6b-dihydro-1H-cyclopropa[b][1]benzofuran-1-carboxamide] |
| 1100 nM | 500 to 5000 nM | O=C(N[C@H]1CCOc2cc(F)c(F)cc21)C1C2Oc3ccc(F)cc3C21 (stereo partly drawn) [Example C7, exo-N-[(4S)-6,7-difluoro-3,4-dihydro-2H-1-benzopyran-4-yl]-5-fluoro-1a,6b-dihydro-1H-cyclopropa[b][1]benzofuran-1-carboxamide] |
| 5600 nM | 5000 to 50000 nM | O=C(NCc1ccc(Cl)c(F)c1)C1C2Oc3ccc(F)cc3C21 (stereo not drawn) [Example C15, exo-N-[(4-chloro-3-fluorophenyl)methyl]-5-fluoro-1a,6b-dihydro-1H-cyclopropa[b][1]benzofuran-1-carboxamide] |
| 600 nM | 500 to 5000 nM | O=C(NCc1cc(C(F)F)nc(C(F)F)c1)C1C2Oc3ccc(F)cc3C21 (stereo not drawn) [Example C19, exo-N-{[2,6-bis(difluoromethyl)pyridin-4-yl]methyl}-5-fluoro-1a,6b-dihydro-1H-cyclopropa[b][1]benzofuran-1-carboxamide] |
| 2300 nM | 500 to 5000 nM | O=C(NCc1ccc(F)cc1F)C1C2Oc3ccc(F)cc3C21 (stereo not drawn) [Example C23, exo-N-[(2,4-difluorophenyl)methyl]-5-fluoro-1a,6b-dihydro-H-cyclopropa[b][1]benzofuran-1-carboxamide] |
| 970 nM | 500 to 5000 nM | O=C(NCc1cccs1)C1C2Oc3ccc(F)cc3C21 (stereo not drawn) [Example C17, exo-5-fluoro-N-[(thiophen-2-yl)methyl]-1a,6b-dihydro-1H-cyclopropa[b][1]benzofuran-1-carboxamide] |
| 520 nM | 500 to 5000 nM | O=C(NCc1cc(-c2ccccn2)no1)C1C2Oc3ccc(F)cc3C21 (stereo not drawn) [Example C46, exo-5-fluoro-N-{[3-(pyridin-2-yl)-1,2-oxazol-5-yl]methyl}-1a,6b-dihydro-1H-cyclopropa[b][1]benzofuran-1-carboxamide] |
| 860 nM | 500 to 5000 nM | O=C(N[C@H]1CCOc2cc(F)ccc21)C1C2Oc3ccc(F)cc3C21 (stereo partly drawn) [Example C6, exo-5-fluoro-N-[(4S)-7-fluoro-3,4-dihydro-2H-1-benzopyran-4-yl]-1a,6b-dihydro-1H-cyclopropa[b][1]benzofuran-1-carboxamide] |
| 4800 nM | 500 to 5000 nM | O=C(N[C@H]1COCc2ccc(F)cc21)C1C2Oc3ccc(F)cc3C21 (stereo partly drawn) [Example C1, exo-5-fluoro-N-[(4R)-6-fluoro-3,4-dihydro-1H-2-benzopyran-4-yl]-1a,6b-dihydro-1H-cyclopropa[b][1]benzofuran-1-carboxamide] |

Source: patent publication US20240368109A1, “ALLOSTERIC MODULATORS OF NICOTINIC ACETYLCHOLINE RECEPTORS” (MERCK SHARP & DOHME LLC, priority 2021, published 2024)
